Assay: YAP Reporter Assay: HEK293T cells stably transfected with 8XTBD luciferase reporter and pRLTK in 384-well plates were treated with the test compounds, starting from 3 μM (final concentration in assay plate), 1:3 dilution, and 10 points in quadruplicates. Post 24-hr incubation with compounds at 37° C. and 5% CO2, cells were lysed and 8XTBD-driven firefly luciferase and control TK-driven renilla luciferase activities were measured using Promega Dual-Luciferase Reporter Assay System.Reagents: The reagents used for this study are: DMEM: Invitrogen #11960077, Dual-Glo Luciferase Assay System: Promega-E2980, Puromycin Dihydrochloride: Invitrogen-A1113803, 384-well plate: PerkinElmer-6007480, L-GLUTAMINE: Invitrogen-25030164, Hygromycin B: Invitrogen-10687010, and Penicillin-Streptomycin: Merk-TMS-AB2-CMedia: The media used for this assay were: Culture Medium: DMEM+1 ug/mL puromycin+200 ug/mL hygromycin (with 10% FBS+1 mM L-glutamine); and Assay Medium: DMEM (with 10% FBS+1 mM L-glutamine+1× P/S).Cell Plating: The appropriate media was warmed at 37° C. by water bath: Culture Medium, Assay Medium, 1*D-PBS, 0.05% trypsin-EDTA. The cells were trypsinized after removing all media, then washed with 1*sterile D-PBS and then with 2 ml 0.05% trypsin-EDTA. The cells were then incubated at RT for one minute. Then 10 ml/75 cm2 flask Assay Medium was added to each flask. Using a 10 ml pipette, the cells were then gently resuspended in the media, until the clumps completely disappeared. The cells were then transferred into 50 ml centrifuge tubes and were centrifuged at 800 rpm for 5 mins. The medium was removed and the cells were resuspended with Assay Medium. An aliquot of cells was used to count the cell density (cells/nil). The cell suspension was then diluted with Assay Medium to a concentration of 6×10^4 cells/ml. 50 ul cells suspension was then plated to 384-well plate (PerkinElmer-6007480), 3×10^3 cells/well and the cells were incubated in an incubator at 37° C., 5% CO2.Compound Treatment: In the afternoon (incubation of the plate with 3-4 hrs), the test compounds were added by Echo, starting from 3 uM (final concentration in the assay plate), 1:3 dilution, 10 points, quadruplicates. The plate was placed at 37° C., 5% CO2 incubator for 24 hrs.Detection: The Dual-Glo Luciferase Reagent was prepared by transferring the contents of one bottle of Dual-Glo Luciferase Buffer to one bottle of Dual-Glo Luciferase Substrate to create the Dual-Glo Luciferase Reagent. Mixing was performed by inversion until the substrate was thoroughly dissolved. After mixing, the reagent was aliquoted into 15 ml tubes. In the afternoon (24 hrs post compound treatment), the DMEM+ medium in the 384 well plates were aspirated by Microplate Washer.Measuring firefly luciferase activity: 20 ul Dual-Glo Luciferase Reagent was added to the 384-well plates. The plates were protected from light to prevent interference with the assay. The plates were shaken for 1 min followed centrifuging plates at 1000 rpm for 30 seconds. After waiting at least 10 minutes, the firefly luminescence was measured by Envision.Measuring renilla luciferase activity: 20 ul Stop-Glo Reagent was added to the 384-well plates. The plates were shaken for lmin and then centrifuged at 1000 rpm for 30 seconds. After waiting at least 10 minutes, the renilla luminescence was measured by Envision.

Row | Structure (SMILES) | IC50 (HEK-293T, 24 h) | IC50
1 | COc1ccc(-c2nnn(CCO)n2)c(Nc2ccc(C(F)(F)F)cc2)c1 | < 0.1 µM | 
2 | CCOC(=O)Cn1cc(-c2ccccc2Nc2ccc(C(F)(F)F)cc2)c(C)n1 | in the range around 0.55 µM | 
3 | FC(F)(F)c1ccc(Nc2ccccc2-c2nnn(CCOC3CCNCC3)n2)cc1 | in the range around 0.55 µM | 
4 | OC1(Cn2nnc(-c3ccccc3Nc3ccc(C(F)(F)F)cc3)n2)CC1 | < 0.1 µM | 
5 | CC(=O)N1CC(O)(Cn2nnc(-c3ccccc3Nc3ccc(C(F)(F)F)cc3)n2)C1 | in the range around 0.55 µM | 
6 | CC(CO)c1nc(-c2ccccc2Nc2ccc(C(F)(F)F)cc2)nn1C (centres undefined) | in the range around 3 µM | 
7 | CC(CN)n1nnc(-c2ccccc2Nc2ccc(C(F)(F)F)cc2)n1 (centres undefined) | < 0.1 µM | 
8 | CC(N)Cn1nnc(-c2ccccc2Nc2ccc(C(F)(F)F)cc2)n1 (centres undefined) | in the range around 0.55 µM | 
9 | OCCn1nnc(-c2cccnc2Nc2ccc(C(F)(F)F)cc2)n1 | in the range around 0.55 µM | 
10 | NS(=O)(=O)NCCn1nnc(-c2ccccc2Nc2ccc(C(F)(F)F)cc2)n1 | in the range around 3 µM | 
11 | OCCn1nnc(-c2cccc(F)c2Nc2ccc(C(F)(F)F)cc2)n1 | < 0.1 µM | 
12 | O[C@H]1CNC[C@@H]1n1nnc(-c2ccccc2Nc2ccc(C(F)(F)F)cc2)n1 | in the range around 0.55 µM | 
13 | OC1(Cn2nnc(-c3ccccc3Nc3ccc(C(F)(F)F)cc3)n2)CCCCC1 | in the range around 0.55 µM | 
14 | CCOC(=O)Cn1cc(-c2ccccc2Nc2cccc(C(F)(F)F)c2)cn1 | in the range around 0.55 µM | 
15 | OCCn1nnc(-c2ccc(F)cc2Nc2ccc(C(F)(F)F)cc2)n1 | < 0.1 µM | 
16 | O=C(Cn1nnc(-c2ccccc2Nc2ccc(C(F)(F)F)cc2)n1)C1CC1 | in the range around 0.55 µM | 
17 | CN(C)CCCn1nnc(-c2ccccc2Nc2ccc(OC(F)(F)F)cc2)n1 | in the range around 3 µM | 
18 | FC(F)(F)c1ccc(Nc2ccccc2-c2nnn(Cc3cccnc3)n2)cc1 | in the range around 0.55 µM | 

Row | Structure (SMILES) | IC50 (HEK-293T, 24 h) | IC50
19 | NC(=O)OCCn1nnc(-c2ccccc2Nc2ccc(C(F)(F)F)cc2)n1 | < 0.1 µM | 
20 | CC(=O)N1CCC(O)(Cn2nnc(-c3ccccc3Nc3ccc(C(F)(F)F)cc3)n2)C1 (centres undefined) | in the range around 0.55 µM | 
21 | O=C1N[C@H](Cn2nnc(-c3ccccc3Nc3ccc(C(F)(F)F)cc3)n2)CO1 | in the range around 0.55 µM | 
22 | CO[C@@H](C)[C@@H](C)n1nnc(-c2ccccc2Nc2ccc(C(F)(F)F)cc2)n1 | < 0.1 µM | 
23 | CC(C)C(O)Cn1nnc(-c2ccccc2Nc2ccc(C(F)(F)F)cc2)n1 (centres undefined) | in the range around 0.55 µM | 
24 | CC(CO)n1nnc(-c2ccccc2Nc2ccc(C(F)(F)F)cc2)n1 (centres undefined) | < 0.1 µM | 
25 | O=C1NCC(Cn2nnc(-c3ccccc3Nc3ccc(C(F)(F)F)cc3)n2)N1 (centres undefined) | in the range around 0.55 µM | 
26 | OCCn1nnc(-c2cc(OC(F)F)ccc2Nc2ccc(C(F)(F)F)cc2)n1 | < 0.1 µM | 
27 | CCOC(=O)Cn1ncc(-c2ccccc2Nc2cccc(C(F)(F)F)c2)c1C | in the range around 3 µM | 
28 | CO[C@H](C)[C@@H](C)n1nnc(-c2ccccc2Nc2ccc(C(F)(F)F)cc2)n1 | in the range around 0.55 µM | 
29 | CN(C)C(=O)Cn1nnc(-c2ccccc2Nc2ccc(C(F)(F)F)cc2)n1 | in the range around 0.55 µM | 
30 | O=C1NC(Cn2nnc(-c3ccccc3Nc3ccc(C(F)(F)F)cc3)n2)CO1 (centres undefined) | in the range around 0.55 µM | 
31 | OC1(Cn2nnc(-c3ccccc3Nc3ccc(C(F)(F)F)cc3)n2)CCCOC1 (centres undefined) | in the range around 0.55 µM | 
32 | COc1ccc(Nc2ccccc2-c2nnn(CCO)n2)cc1 | in the range around 0.55 µM | 
33 | CCOC(=O)C(C)n1nnc(-c2ccccc2Nc2ccc(C(F)(F)F)cc2)n1 (centres undefined) | < 0.1 µM | 
34 | C[C@H](c1ccccc1)N1C(=O)OC[C@H]1Cn1nnc(-c2ccccc2Nc2ccc(C(F)(F)F)cc2)n1 | in the range around 0.55 µM | 
35 | CCN(CC)C(=O)Cn1nnc(-c2ccccc2Nc2ccc(C(F)(F)F)cc2)n1 | in the range around 3 µM | 

Continued, values first:

Row | IC50 (HEK-293T, 24 h) | IC50 | Structure (SMILES)
36 | in the range around 0.55 µM |  | CC(=O)N1CCCC(O)(Cn2nnc(-c3ccccc3Nc3ccc(C(F)(F)F)cc3)n2)C1 (centres undefined)
37 | in the range around 3 µM |  | Cc1c(-c2ccccc2Nc2ccc(C(F)(F)F)cc2)cnn1CCO
38 | in the range around 3 µM |  | O=C(Cn1nnc(-c2ccccc2Nc2ccc(C(F)(F)F)cc2)n1)c1ccccc1
39 | in the range around 0.55 µM |  | OC1(Cn2nnc(-c3ccccc3Nc3ccc(C(F)(F)F)cc3)n2)CCCN(c2ccccc2)C1 (centres undefined)
40 | < 0.1 µM |  | OCCn1nnc(-c2cc(F)ccc2Nc2ccc(C(F)(F)F)cc2)n1
41 | < 0.1 µM |  | CCC(O)Cn1nnc(-c2ccccc2Nc2ccc(C(F)(F)F)cc2)n1 (centres undefined)
42 | < 0.1 µM |  | COCCn1nnc(-c2ccccc2Nc2ccc(C(F)(F)F)cc2)n1
43 | in the range around 3 µM |  | FC(F)(F)c1ccc(Nc2ccccc2-c2nnn(C3CNC3)n2)cc1
44 | < 0.1 µM |  | C[C@@H](O)[C@H](C)n1nnc(-c2ccccc2Nc2ccc(C(F)(F)F)cc2)n1
45 | < 0.1 µM |  | FC(F)(F)c1ccc(Nc2ccccc2-c2nnn(C3COCOC3)n2)cc1
46 | < 0.1 µM |  | CNC(=O)Cn1nnc(-c2ccccc2Nc2ccc(C(F)(F)F)cc2)n1
47 | in the range around 3 µM |  | COCCn1nnc(-c2ccccc2Nc2cccc(C(F)(F)F)c2)n1
48 | in the range around 0.55 µM |  | [O-][S+]1CC(O)(Cn2nnc(-c3ccccc3Nc3ccc(C(F)(F)F)cc3)n2)C1 (centres undefined)
49 | in the range around 0.55 µM |  | OCCn1nnc(-c2ccccc2Nc2ccc(F)cc2)n1
50 | < 0.1 µM |  | Cc1ccc(-c2nnn(CCO)n2)c(Nc2ccc(C(F)(F)F)cc2)c1
51 | in the range around 0.55 µM |  | OCCn1nnc(-c2ccccc2Nc2ccc(F)cc2F)n1
52 | in the range around 0.55 µM |  | CC(=O)NCCn1nnc(-c2ccccc2Nc2ccc(C(F)(F)F)cc2)n1
53 | in the range around 3 µM |  | Cn1nc(-c2ccccc2Nc2ccc(C(F)(F)F)cc2)cc1CCO
54 | in the range around 3 µM |  | OCCn1nnc(-c2cnccc2Nc2ccc(C(F)(F)F)cc2)n1
55 | < 0.1 µM | < 0.1 µM | OCCn1nnc(-c2ccccc2Nc2ccc(C(F)(F)F)cc2)n1
56 | in the range around 3 µM |  | Cc1nn(CCO)cc1-c1ccccc1Nc1ccc(C(F)(F)F)cc1
57 | < 0.1 µM |  | OCC(CO)n1nnc(-c2ccccc2Nc2ccc(C(F)(F)F)cc2)n1

Row | IC50 (HEK-293T, 24 h) | IC50 | Structure (SMILES)
58 | in the range around 0.55 µM |  | OCCn1nnc(-c2ccccc2Nc2cccc(F)c2)n1
59 | in the range around 0.55 µM |  | OCCn1nnc(-c2ccccc2Nc2cccc(OC(F)(F)F)c2)n1
60 | < 0.1 µM |  | NC(=O)Cn1nnc(-c2ccccc2Nc2ccc(C(F)(F)F)cc2)n1
61 | in the range around 0.55 µM |  | FCCn1nnc(-c2ccccc2Nc2ccc(C(F)(F)F)cc2)n1
62 | in the range around 0.55 µM |  | NCCCn1nnc(-c2ccccc2Nc2ccc(C(F)(F)F)cc2)n1
63 | < 0.1 µM |  | NC(=O)NCCn1nnc(-c2ccccc2Nc2ccc(C(F)(F)F)cc2)n1
64 | in the range around 0.55 µM |  | [N-]=[N+]=Nc1ccc(Nc2ccccc2-c2nnn(CCO)n2)cc1
65 | in the range around 0.55 µM |  | FC(F)(F)c1ccc(Nc2ccccc2-c2nnn(-c3ccccn3)n2)cc1
66 | in the range around 3 µM |  | Cn1nc(-c2ccccc2Nc2ccc(C(F)(F)F)cc2)nc1CCO
67 | in the range around 0.55 µM |  | FC(F)(F)c1ccc(Nc2ccccc2-c2nnn(CC3COC3)n2)cc1
68 | < 0.1 µM |  | OCCn1nnc(-c2ccc(Cl)cc2Nc2ccc(C(F)(F)F)cc2)n1
69 | in the range around 3 µM |  | CC(C)(C)OC(=O)N1CCCC(O)(Cn2nnc(-c3ccccc3Nc3ccc(C(F)(F)F)cc3)n2)C1 (centres undefined)
70 | in the range around 3 µM |  | FC(F)(F)Oc1ccc(Nc2ccccc2-c2nnn(Cc3cccnc3)n2)cc1
71 | in the range around 0.55 µM |  | OCCn1nnc(-c2ccccc2Nc2ccc(Cl)c(Cl)c2)n1
72 | in the range around 0.55 µM |  | CNC(=O)Cn1nnc(-c2ccccc2Nc2ccc(OC(F)(F)F)cc2)n1
73 | < 0.1 µM |  | CCc1ccc(Nc2ccc(C(F)(F)F)cc2)c(-c2nnn(CCO)n2)c1
74 | in the range around 0.55 µM |  | CCOC(=O)Cn1cnc(-c2ccccc2Nc2ccc(C(F)(F)F)cc2)c1
75 | in the range around 3 µM |  | CN(C)CCCn1nnc(-c2ccccc2Nc2ccc(C(F)(F)F)cc2)n1
76 | in the range around 0.55 µM |  | CNCCn1nnc(-c2ccccc2Nc2ccc(C(F)(F)F)cc2)n1
77 | in the range around 3 µM |  | FC(F)(F)c1ccc(Nc2ccccc2-c2nnn(-c3cccnc3)n2)cc1
78 | in the range around 3 µM |  | OC(Cn1nnc(-c2ccccc2Nc2ccc(C(F)(F)F)cc2)n1)c1ccccc1 (centres undefined)

From ChEMBL document CHEMBL5728837, “Non-fused tricyclic compounds” (2021)
